# Laboratory results as given in patent US20220313780A1, “METHODS AND COMPOSITIONS FOR TREATING INFLAMMATORY CONDITIONS” (THE SCRIPPS RESEARCH INSTITUTE, priority 2019, published 2022).
# “Also recorded” adds a separate entry of the source.
# System: caspase 1
# Assay: Caspase 1 activity assay in PMA-differentiated THP1 cells treated with LPS and ATP
# Assay type: cell-based, human
# Conditions: for caspase 1 activity: peptide 50 μM for 60 min before LPS (1 μg/mL) and ATP (5 mM), THP1 cells
# Description: THP1-null (THP1) cells were plated at a final concentration of 1×10^6/mL in 96 well plates and incubated with PMA (0.5 μM) for 3 hours 37° C. in supplemented RPMI. Media was subsequently changed every 24 hours for 3 days. Various subsets of wells were selected and cells were treated for 60 minutes at 37° C. in serum-free RPMI with: (A) APC (4 μg/mL), TR47 (50 μM-2 nM), scrTR47 (50 μM), SFLLRN (50 μM), TFLLRN (50 μM); (B) P3R (50 μM-500 nM), P3K (50 μM); (C) APC (4 or 1 μg/mL), TR47 (8 nM), P3R (500 nM) or TR47+P3R (8 nM and 500 nM, respectively); (D) TR47 (0-128 nM) (●)±P3R (500 nM) (□); (E) P3R (0-500 nM) (●)±TR47 (1 nM) (□). Following DPBS wash, cells were incubated with LPS (1 μg/mL) for 3 hours at 37° C. in serum-free RPMI. After a DPBS wash, cells were incubated with ATP (5 mM) in the presence or absence of 10 μM YVAD (caspase 1 inhibitor) or 2.5 μM ZVAD (pan-caspase inhibitor) for 45 minutes at 37° C., prior to performing the caspase 1 activity assay following manufacturer's directions measuring luminescence (relative luminescent units, RLU). (D & E) Experimental caspase 1 activity was normalized to YVAD (caspase 1 inhibitor) luminescence units. (A-E) Data points represent mean±S.D. of at least 3 independent experiments. *P<0.05 (vs. LPS+ATP); #P<0.05 (vs. LPS+ATP & APC, TR47 or P3R); **P<0.005 (vs. LPS+ATP & TR47+500 nM P3R); n.s. not significant.
# THP1 cells were plated at a final concentration of 1×10^6/mL in 96 well plates and incubated with PMA (0.5 μM) for 3 hours 37° C. in supplemented RPMI. Media was subsequently changed every 24 hours for 3 days. Selected wells were treated with APC (4 μg/mL), (A) 50 μM or (B) 2 μM of P3R, P3Rm, P3R 51-65, P3R 51-59, P3R 54-59 or P3R 59-65 for 1 hour, washed with DPBS, and incubated with LPS (1 μg/mL) for 3 hours at 37° C. in serum-free RPMI. Cells were washed with DPBS and incubated with ATP (5 mM) in the presence or absence of 10 μM YVAD (caspase 1 inhibitor; C1i) or 2.5 μM ZVAD (pan-caspase inhibitor; pCi) for 45 minutes at 37° C., prior to performing the caspase 1 activity assay following manufacturer's directions measuring luminescence (relative luminescent units, RLU). (C) Diagram showing the PAR3 sequence, peptide sequences and relative (anti-inflammatory) activity. These include sequences of P3R (SEQ ID NO:4), P3Rm (SEQ ID NO:8), P3R 51-65 (SEQ ID NO:9), P3R 51-59 (SEQ ID NO:10), P3R 54-59 (SEQ ID NO:54) and P3R 59-65 (SEQ ID NO:55).
# THP1 cells were plated at a final concentration of 1×10^6/mL in 96 well plates and incubated with PMA (0.5 μM) for 3 hours 37° C. in supplemented RPMI. Media was subsequently changed every 24 hours for 3 days. Selected wells were treated with APC (4 μg/mL), TR47, in (A) 9-mer (TR47 9-mer; NPNDKYEPF (SEQ ID NO:36)) or Ac-TR47 (Acylated TR47) at either 50 μM or 10 nM or (B) 50 μM of 16-mer-TR47, 8-mer-TR47, 6-mer-TR47, TR47 N−1, TR47 N−2, TR47 N−5, TR47AQ, TR47AD, TR47AA or TR48-54 for 1 hour, washed with DPBS, and incubated with LPS (1 μg/mL) for 3 hours at 37° C. in serum-free RPMI. Cells were washed with DPBS and incubated with ATP (5 mM) in the presence or absence of 10 μM YVAD (caspase 1 inhibitor; C1i) or 2.5 μM ZVAD (pan-caspase inhibitor; pCi) for 45 minutes at 37° C., prior to performing the caspase 1 activity assay following manufacturer's directions measuring luminescence (relative luminescent units, RLU). #P<0.001 (vs. LPS+ATP), **P<0.005 (vs. LPS+ATP), * (P<0.05 vs. LPS+ATP). (C) Diagram showing the PAR1 sequence, peptide sequences and relative (anti-inflammatory) activity. These include sequences of TR47 (SEQ ID NO:7), Ac-TR47 (SEQ ID NO:56), 16-mer-TR47 (SEQ ID NO:43), 9-mer-TR47 (SEQ ID NO:36), 8-mer-TR47 (SEQ ID NO:35), 6-mer-TR47 (SEQ ID NO:33), TR47 N−1 (SEQ ID NO:47), TR47 N−2 (SEQ ID NO:51), TR47 N−5 (SEQ ID NO:48), TR47AQ (SEQ ID NO:49), TR47AD (SEQ ID NO:52), TR47AA (SEQ ID NO:50) and TR48-54 (SEQ ID NO:53). […]
Sequence,normalized caspase 1 activity (P3R at ≤500 nM with 1 nM TR47),caspase 1 activity,caspase 1 activity normalized to caspase 1 inhibited conditions (TR47 at <10 nM in the presence of 500 nM P3R)
"GAPPNSFEEFPFSALEGWTGATIT [P3R, PAR3-derived 24-mer peptide]",a significant reduction in normalized caspase 1 activity was observed,reduced caspase 1 activity; also recorded: a significant reduction in caspase 1 activity was observed,
"NPNDKYEPFWEDEEKNESGL [TR47, PAR1-derived 20 amino acid peptide]",,similarly reduced caspase 1 activity,a reduction in caspase 1 activity was observed
